Legend:
[1] = target: C. albicans CYP51F1 wild-type (Candida albicans, UniProt P10613); experiment: Spectral binding titration of purified CYP51F1 wild type
[2] = target: C. albicans CYP51F1 F105L mutant (Candida albicans, UniProt P10613, F105L); experiment: Spectral binding titration of purified CYP51F1 F105L mutant
[3] = target: C. albicans CYP51F1 D116E mutant (Candida albicans, UniProt P10613, D116E); experiment: Spectral binding titration of purified CYP51F1 D116E mutant
[4] = target: C. albicans CYP51F1 Y132H mutant (Candida albicans, UniProt P10613, Y132H); experiment: Spectral binding titration of purified CYP51F1 Y132H mutant
[5] = target: C. albicans CYP51F1 R467K mutant (Candida albicans, UniProt P10613, R467K); experiment: Spectral binding titration of purified CYP51F1 R467K mutant

Structure (SMILES): CC(C)=CCC[C@@H](C)[C@H]1CC[C@@]2(C)C3=C(CC[C@]12C)[C@@]1(C)CC[C@H](O)C(C)(C)[C@@H]1CC3 [lanosterol, Lanosterol]
- Kd [1]: 6700 nM

Structure (SMILES): CC(=O)N1CCN(c2ccc(OCC3COC(Cn4ccnc4)(c4ccc(Cl)cc4Cl)O3)cc2)CC1 (centres unmarked) [Ketoconazole, ketoconazole]
- Kd [1]: 420 ± 80 nM
- Kd [2]: 170 ± 40 nM
- Kd [3]: 430 ± 80 nM
- Kd [4]: 540 ± 70 nM
- Kd [5]: 660 ± 130 nM

Structure (SMILES): OC(Cn1cncn1)(Cn1cncn1)c1ccc(F)cc1F [Fluconazole, fluconazole]
- Kd [1]: 60 ± 10 nM
- Kd [2]: 20 ± 10 nM
- Kd [3]: 30 ± 10 nM
- Kd [4]: 150 ± 60 nM
- Kd [5]: 60 ± 10 nM

Structure (SMILES): CCC(C)n1ncn(-c2ccc(N3CCN(c4ccc(OCC5COC(Cn6cncn6)(c6ccc(Cl)cc6Cl)O5)cc4)CC3)cc2)c1=O (centres unmarked) [Itraconazole, itraconazole]
- Kd [1]: 190 ± 60 nM
- Kd [2]: 160 ± 40 nM
- Kd [3]: 150 ± 30 nM
- Kd [5]: 180 ± 40 nM

Structure (SMILES): Clc1ccc(COC(Cn2ccnc2)c2ccc(Cl)cc2Cl)cc1 (centres unmarked) [Econazole, econazole]
- Kd [1]: 200 ± 40 nM
- Kd [2]: 100 ± 30 nM
- Kd [3]: 140 ± 30 nM
- Kd [4]: 420 ± 60 nM
- Kd [5]: 130 ± 30 nM
